Assays:
Assay type in all cases: cell-based
[1] = tested on: HCT-116 colorectal cancer cell line; assay: CCK-8 proliferation inhibition; details: Homo sapiens, HCT-116, 72 h, concentration of 30 μM; 72 hours; CCK-8; read-out: HCT116 inhibition rate/%
How it was run: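 Cells seeded at 2000 cells/well, cultured overnight at 37 °C, 5% CO2, then exposed to compound (DMSO; control 1‰ DMSO) for 72 h in McCoy's 5A with 10% newborn bovine serum. Viability read with 1:10 diluted CCK-8.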

[2] = tested on: Enterococcus faecalis (EFA); assay: MIC, two-fold agar dilution (CLSI), clinical isolates
How it was run: (§1)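 Samples are serially diluted two-fold in agar following CLSI guidance. Plates are then inoculated with the tested strains. The lowest inhibiting concentration is recorded as MIC.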

[3] = tested on: methicillin-sensitive Staphylococcus epidermidis (MSSE); assay: as above
How it was run: as §1

[4] = tested on: methicillin-resistant Staphylococcus epidermidis (MRSE); assay: as above
How it was run: as §1

[5] = tested on: Enterococcus faecium (EFM); assay: as above
How it was run: as §1

[6] = tested on: Streptococcus pneoumoniae (SPN); assay: as above
How it was run: as §1

[7] = tested on: Escherichia coli (including ESBLs, non-ESBLs); assay: as above
How it was run: as §1

[8] = tested on: Moraxella catarrhalis (BCA); assay: as above
How it was run: as §1

[9] = tested on: methicillin-resistant Staphylococcus aureus (MRSA); assay: as above
How it was run: as §1

[10] = tested on: methicillin-sensitive Staphylococcus aureus (MSSA); assay: as above
How it was run: as §1

CCCC[C@H](CC(=O)NO)C(=O)N1CC2(CC2)C[C@@H]1c1nc2ccccc2[nH]1 [Example 59, (R)-3-((R)-6-(1H-benzimidazol-2-yl)-5-azaspiro[2.4]heptane-5-carbonyl)-N-hydroxyheptanamide]
12%: inhibition at 30 µM [1]
8 mg/L: Anti-bacterial activity (MIC), strain SPN 16-2 ([6]; clinical isolate SPN 16-2) | Anti-bacterial activity (MIC), strain SPN 16-4 ([6]; clinical isolate SPN 16-4)
> 32 mg/L: Anti-bacterial activity (MIC), strain EFA 15-1 ([2]; clinical isolate EFA 15-1) | Anti-bacterial activity (MIC), strain EFA 15-2 ([2]; clinical isolate EFA 15-2) | Anti-bacterial activity (MIC), strain EFA 15-3 ([2]; clinical isolate EFA 15-3) | Anti-bacterial activity (MIC), strain EFA 15-4 ([2]; clinical isolate EFA 15-4) | Anti-bacterial activity (MIC), strain EFA 15-5 ([2]; clinical isolate EFA 15-5) | Anti-bacterial activity (MIC), strain EFA 15-6 ([2]; clinical isolate EFA 15-6) | Anti-bacterial activity (MIC), strain EFA 15-9 ([2]; clinical isolate EFA 15-9) | Anti-bacterial activity (MIC), strain MSSE 15-3 ([3]; clinical isolate MSSE 15-3) | Anti-bacterial activity (MIC), strain MSSE 15-4 ([3]; clinical isolate MSSE 15-4) | Anti-bacterial activity (MIC), strain MSSE 15-5 ([3]; clinical isolate MSSE 15-5) | Anti-bacterial activity (MIC), strain MSSE 15-6 ([3]; clinical isolate MSSE 15-6) | Anti-bacterial activity (MIC), strain MRSE 15-1 ([4]; clinical isolate MRSE 15-1) | Anti-bacterial activity (MIC), strain MRSE 15-2 ([4]; clinical isolate MRSE 15-2) | Anti-bacterial activity (MIC), strain MRSE 15-3 ([4]; clinical isolate MRSE 15-3) | Anti-bacterial activity (MIC), strain MRSE 15-7 ([4]; clinical isolate MRSE 15-7) | Anti-bacterial activity (MIC), strain EFM 15-1 ([5]; clinical isolate EFM 15-1) | Anti-bacterial activity (MIC), strain EFM 15-2 ([5]; clinical isolate EFM 15-2) | Anti-bacterial activity (MIC), strain EFM 15-3 ([5]; clinical isolate EFM 15-3) | Anti-bacterial activity (MIC), strain EFM 15-4 ([5]; clinical isolate EFM 15-4) | Anti-bacterial activity (MIC), strain ECO+ 15-1 ([7]; clinical isolate ECO+ 15-1) | Anti-bacterial activity (MIC), strain ECO+ 15-2 ([7]; clinical isolate ECO+ 15-2) | Anti-bacterial activity (MIC), strain ECO+ 15-3 ([7]; clinical isolate ECO+ 15-3) | Anti-bacterial activity (MIC), strain ECO+ 15-4 ([7]; clinical isolate ECO+ 15-4) | Anti-bacterial activity (MIC), strain ECO− 15-1 ([7]; clinical isolate ECO− 15-1) | Anti-bacterial activity (MIC), strain ECO− 15-2 ([7]; clinical isolate ECO− 15-2) | Anti-bacterial activity (MIC), strain ECO− 15-3 ([7]; clinical isolate ECO− 15-3) | Anti-bacterial activity (MIC), strain ECO− 15-4 ([7]; clinical isolate ECO− 15-4) | Anti-bacterial activity (MIC), strain BCA 14-1 ([8]; clinical isolate BCA 14-1) | Anti-bacterial activity (MIC), strain BCA 14-4 ([8]; clinical isolate BCA 14-4) | Anti-bacterial activity (MIC), strain BCA 14-6 ([8]; clinical isolate BCA 14-6) | Anti-bacterial activity (MIC), strain BCA 14-7 ([8]; clinical isolate BCA 14-7) | Anti-bacterial activity (MIC), strain BCA 14-8 ([8]; clinical isolate BCA 14-8) | Anti-bacterial activity (MIC), strain BCA 14-10 ([8]; clinical isolate BCA 14-10) | Anti-bacterial activity (MIC), strain MRSA 15-1 ([9]; clinical isolate MRSA 15-1) | Anti-bacterial activity (MIC), strain MRSA 15-2 ([9]; clinical isolate MRSA 15-2) | Anti-bacterial activity (MIC), strain MRSA 15-3 ([9]; clinical isolate MRSA 15-3) | Anti-bacterial activity (MIC), strain MRSA 15-4 ([9]; clinical isolate MRSA 15-4) | Anti-bacterial activity (MIC), strain MSSA 15-3 ([10]; clinical isolate MSSA 15-3) | Anti-bacterial activity (MIC), strain MSSA 15-4 ([10]; clinical isolate MSSA 15-4) | Anti-bacterial activity (MIC), strain MSSA 15-5 ([10]; clinical isolate MSSA 15-5) | Anti-bacterial activity (MIC), strain MSSA 15-6 ([10]; clinical isolate MSSA 15-6)
16 mg/L: Anti-bacterial activity (MIC), strain EFM 15-5 ([5]; clinical isolate EFM 15-5) | Anti-bacterial activity (MIC), strain EFM 15-6 ([5]; clinical isolate EFM 15-6) | Anti-bacterial activity (MIC), strain BCA 14-5 ([8]; clinical isolate BCA 14-5)
